How the values were obtained:
Experiment in all cases: protein kinase blot: kinases renatured on the blot, labeling with [γ-32P]ATP
Format in all cases: biochemical
porcine C = porcine C (Sus scrofa, UniProt P36887)
Procedure: (§1) Ejaculated sperm were -collected and washed and demembranated as described in San Agustin et al., Cell Motl. Cytoskel., 24:264-73, 1993. Samples of demembranated sperm were dissolved in SDS-PAGE sample buffer (10% glycerol, 3% SDS, 0.03% bromphenol blue, 50 mM DTT, 62.5 mM Tris-HCl, pH 6.8), and then electrophoresed in a 1.5-mm thick gradient gel (5-15%, 12×14 cm). Protein kinases were renatured on the blot and incubated in the presence of [γ−^32P]ATP using a protocol adapted from Ferrell and Martin, Methods Enzymol., 200:430-35, 1991 and described in San Austin et al., Methods Cell Biol., 47:135-40, 1995. Under these condition, bound kinases phosphorylated themselves or the blocking reagent. In some experiments, 1% poly(Glu,Tyr) 4:1, a tyrosine kinase substrate, was used as blocking solution in place of 5% BSA. […] Two prominent bands at ˜Mr 40,000 and 39,000 migrated slightly faster than porcine C (41 kDa). To determine if either of these was Cs, the incubation with [γ−^32P]ATP was carried out in the presence of PKI(5-24), a potent inhibitor of C, including ram Cs, activity. […] Labeling of the other bands was not affected by PKI(5-24).

[1] = molecular target: T1, ~Mr 40,000 band from sperm (Cs) (Ovis aries, UniProt Q9MZD9); settings: demembranated ram sperm
T1 construct: Samples of demembranated sperm were dissolved in SDS-PAGE sample buffer; from tissue; host or cells: ejaculated, demembranated ram sperm
Procedure: as §1

[2] = tested on: other putative kinase bands of demembranated sperm; settings: demembranated ram sperm
Procedure: as §1

**Q.** With PKI(5-24) as the substance, how does the “labeling of porcine C with [γ-32P]ATP in the presence of inhibitor” value (porcine C) read?
**A.** completely and specifically blocked

**Q.** And the “labeling of the ~Mr 40,000 band from sperm with [γ-32P]ATP in the presence of inhibitor” value [1]?
**A.** completely and specifically blocked

**Q.** What about the “labeling of the other bands with [γ-32P]ATP in the presence of inhibitor” value [2] of the same substance?
**A.** not affected
